Assay results as given in paper PMC10489817, “2-Alkyl-Substituted-4-Amino-Thieno[2,3-d]Pyrimidines: Anti-Proliferative Properties to In Vitro Breast Cancer Models” (Molecules, 2023).
“And” between values parts separate entries of the source, which are not always exact repeats. Equal entries are not always repeated. Where two headings read alike, the source gives them in different places.

Legend:
MCF-7 = assay: MTT anti-proliferative test, MCF-7; assay type: cell-based, human; settings: for SI (selective index) MCF-7: IC50 MCF-10A/IC50 MCF-7
Excerpt: The MCF-10A cell line (normal human mammary epithelial cells) served as a reference control.
All breast cell lines (MCF-10A, MCF-7, and MDA-MB-231) were purchased from the American Type Culture Collection—ATCC (Manassas, VA, USA). The MCF-7 and MDA-MB-231 were cultivated in Dulbecco’s modified Eagle’s medium (DMEM) and supplemented with 10% fetal bovine serum (FBS), 1% sodium pyruvate, and 1% MEM non-essential amino acids (NEAA) without antibiotics. The non-tumorigenic breast cell line (MCF-10A) was cultivated in DMEM medium (Sigma-Aldrich, St. Louis, MO, USA) and supplemented with 10% FBS, 1% sodium pyruvate, 1% non-essential amino acids (NEAA), 20 ng/mL human epithelia growth factor (hEGF), 10 μg/mL insulin, and 0.5 μg/mL hydrocortisone without antibiotics. All cell lines were maintained in a humidified atmosphere, with 5% CO2 at 37 °C.
Using the standard MTT-dye reduction assay described by Mosmann, the anti-proliferative activity was tested. The method is based on the metabolism of the tetrazolium salt MTT to insoluble formazan. The formazan absorption was registered using a microplate reader at λ = 540 nm. The measured absorption is an indicator of cell viability and metabolic activity. Anti-proliferative activities were expressed as IC50 values (concentrations required for 50% inhibition of cell growth), calculated using non-linear regression analysis (GraphPad Software, San Diego, CA, USA).

MDA-MB-231 = assay: ζ-potential measurement, MDA-MB-231; assay type: cell-based, human; settings: PBS pH 7.4, 37 °C; more negative after treatment
Experimental: First, the ζ-potential of each cell line was measured, and all obtained values were negative (Figure 6A). The Student t-test statistical analysis which was applied distinguished the ζ-potentials of the three studied cell lines with p < 0.05, and the values followed the order of MCF-7 > MDA-MB-231 > MCF-10A. […] represents the relative percentage change of the ζ-potential induced by the studied compounds for the different cell lines. Compound 2 was able to decrease the ζ-potential of the cells with the following ranking: MCF-7 (42%) > MCF-10A (24%) > MDA-MB-231 (16%). For compound 4, the ranking was as follows: MCF-10A (50%) > MDA-MB-231 (46%) > MCF-7 (3%). For compound 5, this was MCF-10A (36%) > MCF-7 (22%) > […].
The zeta (ζ ξ) potential is the electrostatic potential at the shear plane of a cell, and is related to both its surface charge and the local environment. The ζ-potential of the intact cells and the treated ones was recorded in a cell suspension (0.5 × 10^6 cells/mL) in PBS, using the electrophoretic light-scattering technique on a Zetasizer Nano ZS analyzer (Malvern Instruments, Great Britain). Laser Doppler electrophoresis and velocimetry of cells were used to determine the ζ-potential by measuring the speeds of the cells in PBS upon the application of an electric field. The ζ-potential was calculated based on the Helmholtz–Smoluchowski equation. The measurements were performed in a U-shaped cell with gold-plated electrodes at 37 °C.
Figure 6 ζ-potential of the investigated cell lines, MCF-10A, MCF-7, and MDA-MB-231 (A). Alterations in the ζ-potential after treatment with compounds 2 (pink), 4 (blue), and 5 (green) (B). All zeta potential values were measured in PBS buffer (137 mM NaCl, 2.7 mM KCl, 8 mM Na2HPO4, and 2 mM KH2PO4; pH 7.4) at 37 °C. Two independent experiments were carried out for each cell line, and each sample was measured 6 times. (*; ***) denote p < 0.05 and p < 0.001 as follows. […]

[1] = Homo sapiens, MCF7, MTT, read-out: IC50 MCF-7 (converted)
[2] = Homo sapiens, MCF7, MTT, read-out: IC50 of Mean ± SD, Anti-Proliferative Activity MCF-7
[3] = MTT, read-out: IC50 MCF-7 (converted)

| IC50 (MCF-7; [1]) | IC50 (MCF-7; [2]) | IC50 (MCF-7; [3]) | melting point | Compound | SI (selective index) MCF-7 (MCF-7) | Δζ/ζ relative change of ζ-potential, MDA-MB-231 (MDA-MB-231) |
| --- | --- | --- | --- | --- | --- | --- |
| 300 µM | 83.1 ± 7.3 µg/mL | 260 µM | 206 to 207 °C | CCOC(=O)Cc1nc(N)c2c(C)c(C(=O)OCC)sc2n1 [Compound 2, Ethyl 4-Amino-2-(2-Ethoxy-2-Oxoethyl)-5-Methylthieno[2,3-d]Pyrimidine-6-Carboxylate] | 6.1 | 16.04% and 16% |
| 100 µM | 28.9 ± 2.1 µg/mL | 110 µM | 173 to 175 °C | CCOC(=O)c1sc2nc(CC)nc(N)c2c1C [Compound 4, Ethyl 4-Amino-2-Ethyl-5-Methylthieno[2,3-d]Pyrimidine-6-Carboxylate] | 12.7 | 45.51% and 46% |
| 100 µM | 35.5 ± 1.5 µg/mL | 140 µM | 203 to 204 °C | CCOC(=O)c1sc2nc(C)nc(N)c2c1C [Compound 5, Ethyl 4-Amino-2,5-Dimethyl-Thieno[2,3-d]Pyrimidine-6-Carboxylate] | 17.4 | 23.31% and 23% |
